What was measured:
Conditions in all cases: incubation time: 72 h
CAL-148 [1] = experiment: normalised response (% of control), CellTox Green; higher = less cell death (100 = DMSO, 0 = benzethonium chloride kill control)
Summary of the method: (§1)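 For each plate, 0.1 % DMSO was set to 100 and a positive kill control to 0. Breast cancer cell lines (20 µl suspension) were seeded into 384-well plates already holding compound at 5 concentrations in 10-fold steps over a 10,000-fold range chosen per compound, and incubated for 72 h. CellTox Green fluorescence at 485/520 nm was read before CellTiter-Glo luminescence, which followed 10 min at room temperature. Each value is the normalised signal at one concentration.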

MDA-MB-468 [2] = experiment: as above
Summary of the method: as §1

MDA-MB-231 [3] = experiment: as above
Summary of the method: as §1

MDA-MB-453 [4] = experiment: as above
Summary of the method: as §1

BT-549 [5] = experiment: as above
Summary of the method: as §1

DU-4475 [6] = experiment: as above
Summary of the method: as §1

MCF-10A [7] = experiment: as above
Summary of the method: as §1

HCC1143 [8] = experiment: as above
Summary of the method: as §1

BT-474 [9] = experiment: as above
Summary of the method: as §1

MFM-223 [10] = experiment: as above
Summary of the method: as §1

Hs578T [11] = experiment: as above
Summary of the method: as §1

CAL-51 [12] = experiment: as above
Summary of the method: as §1

HCC1937 [13] = experiment: as above
Summary of the method: as §1

CAL-85-1 [14] = experiment: as above
Summary of the method: as §1

HDQ-P1 [15] = experiment: as above
Summary of the method: as §1

CAL-120 [16] = experiment: as above
Summary of the method: as §1

MDA-MB-436 [17] = experiment: as above
Summary of the method: as §1

HCC1599 [18] = experiment: as above
Summary of the method: as §1

CAL-148 [19] = experiment: normalised response (% of control), CellTiter-Glo; higher = more viable cells (100 = DMSO, 0 = benzethonium chloride kill control)
Summary of the method: as §1

MDA-MB-468 [20] = experiment: as above
Summary of the method: as §1

MDA-MB-231 [21] = experiment: as above
Summary of the method: as §1

MDA-MB-453 [22] = experiment: as above
Summary of the method: as §1

BT-549 [23] = experiment: as above
Summary of the method: as §1

DU-4475 [24] = experiment: as above
Summary of the method: as §1

MCF-10A [25] = experiment: as above
Summary of the method: as §1

HCC1143 [26] = experiment: as above
Summary of the method: as §1

BT-474 [27] = experiment: as above
Summary of the method: as §1

MFM-223 [28] = experiment: as above
Summary of the method: as §1

Hs578T [29] = experiment: as above
Summary of the method: as §1

CAL-51 [30] = experiment: as above
Summary of the method: as §1

HCC1937 [31] = experiment: as above
Summary of the method: as §1

CAL-85-1 [32] = experiment: as above
Summary of the method: as §1

HDQ-P1 [33] = experiment: as above
Summary of the method: as §1

CAL-120 [34] = experiment: as above
Summary of the method: as §1

SK-BR-3 = experiment: as above
Summary of the method: as §1

MDA-MB-436 [35] = experiment: as above
Summary of the method: as §1

HCC1599 [36] = experiment: as above
Summary of the method: as §1

Row | Structure (SMILES) | normalised response (CAL-148 [1]) [%] | normalised response (MDA-MB-468 [2]) [%] | normalised response (MDA-MB-231 [3]) [%] | normalised response (MDA-MB-453 [4]) [%] | normalised response (BT-549 [5]) [%] | normalised response (DU-4475 [6]) [%] | normalised response (MCF-10A [7]) [%] | normalised response (HCC1143 [8]) [%] | normalised response (BT-474 [9]) [%] | normalised response (MFM-223 [10]) [%] | normalised response (Hs578T [11]) [%] | normalised response (CAL-51 [12]) [%] | normalised response (HCC1937 [13]) [%] | normalised response (CAL-85-1 [14]) [%] | normalised response (HDQ-P1 [15]) [%] | normalised response (CAL-120 [16]) [%] | normalised response (MDA-MB-436 [17]) [%] | normalised response (HCC1599 [18]) [%] | normalised response (CAL-148 [19]) [%] | normalised response (MDA-MB-468 [20]) [%] | normalised response (MDA-MB-231 [21]) [%] | normalised response (MDA-MB-453 [22]) [%] | normalised response (BT-549 [23]) [%] | normalised response (DU-4475 [24]) [%] | normalised response (MCF-10A [25]) [%] | normalised response (HCC1143 [26]) [%] | normalised response (BT-474 [27]) [%] | normalised response (MFM-223 [28]) [%] | normalised response (Hs578T [29]) [%] | normalised response (CAL-51 [30]) [%] | normalised response (HCC1937 [31]) [%] | normalised response (CAL-85-1 [32]) [%] | normalised response (HDQ-P1 [33]) [%] | normalised response (CAL-120 [34]) [%] | normalised response (SK-BR-3) [%] | normalised response (MDA-MB-436 [35]) [%] | normalised response (HCC1599 [36]) [%]
1 | CNC(=O)c1ccc(N2C(=S)N(c3ccc(C#N)c(C(F)(F)F)c3)C(=O)C23CCC3)cc1F [RD162] (100 nM) | 87 | 87.9 | 113 | 107 | 106 | 103 | 110 | 84.3 | 104 | 103 | 88 | 105 | 107 | 101 | 96.8 | 104 | 83.4 | 102 | 101 | 108 | 99.7 | 108 | 97.8 | 102 | 116 | 101 | 94.2 | 103 | 102 | 97.3 | 91.3 | 96.4 | 99.7 | 103 | 103 | 101 | 111
2 | CNC(=O)c1cc(Oc2ccc(NC(=O)Nc3ccc(Cl)c(C(F)(F)F)c3)c(F)c2)ccn1 [Regorafenib] (100 nM) | 101 | 135 | 74.6 | 103 | 109 | 103 | 98.1 | 87.8 | 98.9 | 88.1 | 99.4 | 105 | 99.6 | 108 | 101 | 99.8 | 90.9 | 108 | 112 | 94.3 | 101 | 105 | 103 | 100 | 105 | 100 | 99 | 102 | 108 | 97.5 | 100 | 99.8 | 98.8 | 98.1 | 105 | 106 | 91.2
3 | c1ccc2c(CCNc3ccc(Nc4ccncc4)cc3)c[nH]c2c1 [Serdemetan] (100 nM) | 96.1 | 83.8 | 93.5 | 103 | 103 | 100 | 88 | 104 | 100 | 93.3 | 99.5 | 91.4 | 98.8 | 103 | 51.9 | 96.9 | 88.8 | 93.7 | 91.8 | 95.1 | 98 | 106 | 101 | 101 | 95.2 | 99.2 | 90.6 | 99.9 | 93.2 | 84.5 | 92 | 103 | 105 | 98.2 | 98.3 | 92 | 122
4 | CC(C)C[C@@H](C(=O)N[C@H](C(=O)OC1CCCC1)c1ccccc1)[C@H](O)C(=O)NO [Tosedostat] (100 nM) | 81.6 | -23.4 | 30.6 | 102 | 72.1 | 102 | 76 | 86.2 | 102 | 84 | 81.3 | 53 | 91 | 62.7 | 76.4 | 78.6 | 68.7 | 104 | 94.2 | 60.2 | 70.2 | 64.5 | 70 | 91.8 | 101 | 83.5 | 59.1 | 90.7 | 91.2 | 77.9 | 77.5 | 74.4 | 90.3 | 79.6 | 82.8 | 89 | 85.1
5 | COc1cc2c(NC3CCN(C(C)C)CC3)nc(N3CCC(F)(F)CC3)nc2cc1OCCCN1CCCC1 [UNC0642] (100 nM) | 89.8 | 131 | 107 | 108 | 101 | 97.5 | 99.4 | 65.3 | 100 | 101 | 90.2 | 98.1 | 72.7 | 105 | 80.7 | 101 | 63.9 | 99.2 | 96.5 | 105 | 95 | 108 | 96.5 | 89.9 | 94.8 | 96.1 | 103 | 96.2 | 98.6 | 97.9 | 90.3 | 98.5 | 99.6 | 92 | 96 | 97.9 | 93.7
6 | COCC[n+]1c2c(n(Cc3cnccn3)c1C)C(=O)c1ccccc1C2=O [YM155] (100 nM) | 18.9 | -69.5 | 0.07 | 87.8 | 88.9 | 92.8 | -8.31 | 75.2 | -29.1 | 70.4 | 106 | 21.2 | 22.8 | -130 | -5.41 | -16.3 | 19.2 | 71.7 | 0.53 | 0.08 | 1.55 | 27.8 | 36.9 | 20.4 | 6.51 | 1.4 | 5.9 | 26.2 | 62 | 2.89 | 0.92 | -0.47 | 1.96 | -0.1 | 4.6 | 1.98 | 9.07
